Legend:
CcreOBP10 = assay: Fluorescence competitive binding assay with 1-NPN probe, CcreOBP10; parameters: species or system Cacia cretifera thibetana
Method: (§1) The binding affinities of both CcreOBP6 and CcreOBP10 proteins with 20 odor volatiles were determined. The CcreOBP6 and CcreOBP10 proteins from prokaryotic cells were purified by Ni affinity chromatography. Then, 50 mM Tris-HCL buffer solution (pH = 7.4) was prepared, and N-phenyl-1-naphthylamine (1-NPN) was used as a fluorescent probe. For chromatography, the methanol was used as a solvent for fluorescent probe 1-NPN as well as for 20 odor standard volatile samples dissolved in solvent to make a 1 mM solution. These samples were added to a 96 Micro Well TM microtiter plate (NunclonTM) while the multifunctional microplate reader (VARIOSKAN FLASH) excitation light wavelength was set to 337 nm. The scanning wavelength was between 370 to 550 nm, and both excitation and emission slits were set to 5 nm. To determine the CcreOBP6 and CcreOBP10 protein binding constant with the fluorescent probe 1-NPN, a solution was prepared with CcreOBP6 and CcreOBP10 proteins in Tris-HCL (pH = 7.4) buffer with a 2 μM final concentration. The successive concentrations of 2, 4, 6, 8, 12, 16, and 20 μM of 1-NPN were added, and the fluorescence intensity was recorded at the maximum emission wavelength (Em = 410 nm) for each time, and the experiment was repeated three times. The formula for the protein and odor standard dissociation constant was calculated by: Ki = [IC 50]/(1 + [1-NPN]/K 1-NPN) where IC 50 denotes the odor standard concentrations as the fluorescence intensity value was decreased by half, [1-NPN] is the unbound 1-NPN prob concentration, and K 1-NPN is the protein and 1-NPN probe binding constant.

CcreOBP6 = assay: Fluorescence competitive binding assay with 1-NPN probe, CcreOBP6; parameters: species or system Cacia cretifera thibetana
Method: as §1

males and females = tested on: males and females; parameters: method as in PMID 23564737; details: olfactometer, lower dose; cited from earlier work
[1] = competitive displacement of 1-NPN
[2] = Ki = [IC50]/(1 + [1-NPN]/K1-NPN)
[3] = odor concentration at which 1-NPN fluorescence intensity is halved
[4] = 2 μM protein, Tris-HCl pH 7.4, Em 410 nm, read-out: dissociation constant with fluorescent probe 1-NPN

CCCCCC=O [n-hexanal]
binding with CcreOBP10 (CcreOBP10; [1]): showed binding | binding with CcreOBP6 (CcreOBP6; [1]): did not show any binding

CC(C)COC(=O)c1ccccc1C(=O)OCC(C)C [di-isobutyl phthalate]
drop in the relative fluorescence value (CcreOBP10; [1]): 6.4%

CC12CCC(CC1)C(C)(C)O2 [eucalyptol]
relative fluorescence value (CcreOBP6; [1]): 10.84%

C=CC(=C)CCC=C(C)C [Myrcene]
Ki (CcreOBP10; [2]): 13.8 µM | relative fluorescence value (CcreOBP10; [1]): below 50% | IC50 (CcreOBP10; [3]): 17.9 µM

C1=CCCCC=CCCC1 [1,6-cyclodecadiene]
binding with CcreOBP6 (CcreOBP6; [1]): did not show any binding

c1ccc(Nc2cccc3ccccc23)cc1 [1-NPN, N-phenyl-1-naphthylamine, reference compound]
Kd (CcreOBP10; [4]): 6.18 µM | Kd (CcreOBP6; [4]): 7.09 µM

C=C1CC[C@H]2O[C@]2(C)CC[C@@H]2[C@@H]1CC2(C)C [caryophyllene oxide]
binding with CcreOBP6 (CcreOBP6; [1]): did not show any binding

CCC/C=C/C=O [trans-2-hexenal]
binding with CcreOBP10 (CcreOBP10; [1]): strong binding affinities | relative fluorescence value (CcreOBP10; [1]): below 50% | Ki (CcreOBP6; [2]): 12.9 µM | binding with CcreOBP6 (CcreOBP6; [1]): strong binding affinities | IC50 (CcreOBP6; [3]): 16.2 µM | repellent activity (males and females): good repellent activity

phytol
binding with CcreOBP10 (CcreOBP10; [1]): showed binding | binding with CcreOBP6 (CcreOBP6; [1]): did not show any binding

C=C1CC/C=C(\C)CC[C@@H]2[C@@H]1CC2(C)C [1-caryophyllene]
relative fluorescence value (CcreOBP10; [1]): below 50%
